The values that follow come from US10745382B2 (BRISTOL-MYERS SQUIBB COMPANY, priority 2015, dated 2020).

T1 sequence (Q9NZQ7 with tags, fused parts or gaps): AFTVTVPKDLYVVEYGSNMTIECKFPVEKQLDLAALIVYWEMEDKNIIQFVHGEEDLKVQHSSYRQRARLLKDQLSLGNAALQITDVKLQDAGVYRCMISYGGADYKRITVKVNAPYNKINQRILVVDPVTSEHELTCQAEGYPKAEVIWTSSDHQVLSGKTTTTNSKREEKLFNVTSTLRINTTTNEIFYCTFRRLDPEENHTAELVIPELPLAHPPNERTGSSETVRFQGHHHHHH

The first test addresses T1, PD-1/PD-L1 (Homo sapiens, UniProt Q9NZQ7).
T1 construct: made in house; host or cells: HEK293T
Kind of test: PD-1/PD-L1 Homogenous Time-Resolved Fluorescence (HTRF) binding assay. The following applies: PD-L1-His 10 nM, PD-1-Ig 20 nM; numeric IC50; read-out: Range or IC50. In a few lines: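 Binding was measured by HTRF in dPBS with 0.1% BSA and 0.05% Tween-20. Detection used europium cryptate anti-Ig (1 nM final) and APC anti-His (20 nM final) added over the binding reaction.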
Turning to `Cc1c(COc2cc(OCc3cncc(C#N)c3)c(CN3CCCC[C@H]3C(=O)O)cc2Cl)cccc1-c1cccc(OCCCNC[C@H](O)CO)c1C` [Example 2333, (S)-1-(5-chloro-2-((5-cyanopyridin-3-yl)methoxy)-4-((3′-(3-(((S)-2,3-dihydroxypropyl)amino)propoxy)-2,2′-dimethyl-[1,1′-biphenyl]-3-yl)methoxy)benzyl)piperidine-2-carboxylic Acid], the concentration for half-maximal inhibition (IC50) was determined as 0.9 nM.

The same test, now with this note: PD-L1-His 10 nM, PD-1-Ig 20 nM; value given as range class; read-out: Range or IC50.
For `Cc1c(OCCCN2CC[C@@H](O)C2)cccc1-c1cccc(COc2cc(OCC3CC3(F)F)c(CNC(CO)CO)cc2Cl)c1Cl` (stereo partly drawn) [Example 2320, 2-((5-chloro-4-((2-chloro-3′-(3-((R)-3-hydroxypyrrolidin-1-yl)propoxy)-2′-methyl-[1,1′-biphenyl]-3-yl)methoxy)-2-((2,2-difluorocyclopropyl)methoxy)benzyl)amino)propane-1,3-diol], the IC50 lay in the range of 0.21 to 10 nM.

As for `CC(C)=CCOc1cc(OCc2cccc(-c3cccc(OCCCN4CC[C@@H](O)C4)c3C)c2Cl)c(Cl)cc1CNC(CO)CO` [Example 2321, (R)-2-((5-chloro-4-((2-chloro-3′-(3-(3-hydroxypyrrolidin-1-yl)propoxy)-2′-methyl-[1,1′-biphenyl]-3-yl)methoxy)-2-((3-methylbut-2-en-1-yl)oxy)benzyl)amino)propane-1,3-diol], the IC50 was 0.21 to 10 nM.

In the case of `Cc1c(COc2cc(OCc3cncc(C#N)c3)c(CNC(CO)CO)cc2Cl)cccc1-c1cccc(OC[C@H]2CCNC2)c1C` [Example 2323, (S)-5-((4-chloro-2-(((1,3-dihydroxypropan-2-yl)amino)methyl)-5-((2,2′-dimethyl-3′-(pyrrolidin-3-ylmethoxy)-[1,1′-biphenyl]-3-yl)methoxy)phenoxy)methyl)nicotinonitrile], the half-maximal inhibitory concentration (IC50) fell in the range of 0.21 to 10 nM.

With `Cc1c(COc2cc(OCc3cncc(C#N)c3)c(CNC(C)(CO)CO)cc2Cl)cccc1-c1cccc(OCCCN2CC[C@@H](O)C2)c1C` [Example 2324, (R)-5-((4-chloro-2-(((1,3-dihydroxy-2-methylpropan-2-yl)amino)methyl)-5-((3′-(3-(3-hydroxypyrrolidin-1-yl)propoxy)-2,2′-dimethyl-[1,1′-biphenyl]-3-yl)methoxy)phenoxy)methyl)nicotinonitrile], the 50% inhibitory concentration (IC50) lay in the range of 0.21 to 10 nM.

In the case of `Cc1c(COc2cc(OCc3cncc(C#N)c3)c(CN(C)C(CO)CO)cc2Cl)cccc1-c1cccc(OCCCN2CC[C@@H](O)C2)c1C` [Example 2325, (R)-5-((4-chloro-2-(((1,3-dihydroxypropan-2-yl)(methyl)amino)methyl)-5-((3′-(3-(3-hydroxypyrrolidin-1-yl)propoxy)-2,2′-dimethyl-[1,1′-biphenyl]-3-yl)methoxy)phenoxy)methyl)nicotinonitrile], the 50% inhibitory concentration (IC50) was in the range of 0.21 to 10 nM.

Regarding `Cc1c(COc2cc(OCc3cncc(C#N)c3)c(CNC(C)(C)C)cc2Cl)cccc1-c1cccc(OCCCN2CC[C@@H](O)C2)c1C` [Example 2326, (R)-5-((2-((tert-butylamino)methyl)-4-chloro-5-((3′-(3-(3-hydroxypyrrolidin-1-yl)propoxy)-2,2′-dimethyl-[1,1′-biphenyl]-3-yl)methoxy)phenoxy)methyl)nicotinonitrile], the IC50 fell in the range of 0.21 to 10 nM.

As for `Cc1c(COc2cc(OCc3cncc(C#N)c3)c(CN[C@@](C)(CO)C(=O)O)cc2Cl)cccc1-c1cccc(OCCCN2CC(=O)NC(=O)C2)c1C` [Example 2327, (S)-2-((5-chloro-2-((5-cyanopyridin-3-yl)methoxy)-4-((3′-(3-(3,5-dioxopiperazin-1-yl)propoxy)-2,2′-dimethyl-[1,1′-biphenyl]-3-yl)methoxy)benzyl)amino)-3-hydroxy-2-methylpropanoic Acid], the IC50 lay within 0.21 to 10 nM.

On to `Cc1c(COc2cc(OCc3cncc(C#N)c3)c(CN[C@@](C)(CO)C(=O)O)cc2Cl)cccc1-c1cccc(OCCCN2CCN(C)C(=O)C2)c1C` [Example 2328, (S)-2-((5-chloro-2-((5-cyanopyridin-3-yl)methoxy)-4-((2,2′-dimethyl-3′-(3-(4-methyl-3-oxopiperazin-1-yl)propoxy)-[1,1′-biphenyl]-3-yl)methoxy)benzyl)amino)-3-hydroxy-2-methylpropanoic Acid], for which the IC50 fell in the range of 0.21 to 10 nM.

As for `Cc1c(COc2cc(OCc3cncc(C#N)c3)c(CN3CC(=O)NC(=O)C3)cc2Cl)cccc1-c1cccc(OCCCN2CC[C@@H](O)C2)c1C` [Example 2329, (R)-5-((4-chloro-2-((3,5-dioxopiperazin-1-yl)methyl)-5-((3′-(3-(3-hydroxypyrrolidin-1-yl)propoxy)-2,2′-dimethyl-[1,1′-biphenyl]-3-yl)methoxy)phenoxy)methyl)nicotinonitrile], the half-inhibitory concentration (IC50) lay in the range of 0.21 to 10 nM.

Regarding `Cc1c(COc2cc(OCc3cncc(C#N)c3)c(CN3CCN(C)C(=O)C3)cc2Cl)cccc1-c1cccc(OCCCN2CC[C@@H](O)C2)c1C` [Example 2330, (R)-5-((4-chloro-5-((3′-(3-(3-hydroxypyrrolidin-1-yl)propoxy)-2,2′-dimethyl-[1,1′-biphenyl]-3-yl)methoxy)-2-((4-methyl-3-oxopiperazin-1-yl)methyl)phenoxy)methyl)nicotinonitrile], the IC50 was 0.21 to 10 nM.

Turning to `Cc1c(COc2cc(OCc3cncc(C#N)c3)c(CN3CCNC(=O)C3)cc2Cl)cccc1-c1cccc(OCCCN2CC[C@@H](O)C2)c1C` [Example 2331, (R)-5-((4-chloro-5-((3′-(3-(3-hydroxypyrrolidin-1-yl)propoxy)-2,2′-dimethyl-[1,1′-biphenyl]-3-yl)methoxy)-2-((3-oxopiperazin-1-yl)methyl)phenoxy)methyl)nicotinonitrile], the half-inhibitory concentration (IC50) lay within 0.21 to 10 nM.

Turning to `Cc1c(COc2cc(OCc3cncc(C#N)c3)c(CN3CCCC[C@H]3C(=O)O)cc2Cl)cccc1-c1cccc(OCCCN(C)C[C@H](O)CO)c1C` [Example 2332, (S)-1-(5-chloro-2-((5-cyanopyridin-3-yl)methoxy)-4-((3′-(3-(((S)-2,3-dihydroxypropyl)(methyl)amino)propoxy)-2,2′-dimethyl-[1,1′-biphenyl]-3-yl)methoxy)benzyl)piperidine-2-carboxylic Acid], the 50% inhibitory concentration (IC50) is 0.21 to 10 nM.

As to `Cc1c(COc2cc(OCc3cncc(C#N)c3)c(CN3CCCCC3CO)cc2Cl)cccc1-c1cccc(OCCCN2CC[C@@H](O)C2)c1C` (stereo partly drawn) [Example 2334, 5-((4-chloro-2-((2-(hydroxymethyl)piperidin-1-yl)methyl)-5-((3′-(3-((R)-3-hydroxypyrrolidin-1-yl)propoxy)-2,2′-dimethyl-[1,1′-biphenyl]-3-yl)methoxy)phenoxy)methyl)nicotinonitrile], the IC50 was 0.21 to 10 nM.

In the case of `Cc1c(COc2cc(OCc3cncc(C#N)c3)c(CNC(CO)CO)cc2Cl)cccc1-c1cccc(NC(=O)c2ncccc2CO)c1C` [Example 2340, N-(3′-((2-chloro-5-((5-cyanopyridin-3-yl)methoxy)-4-(((1,3-dihydroxypropan-2-yl)amino)methyl)phenoxy)methyl)-2,2′-dimethyl-[1,1′-biphenyl]-3-yl)-3-(hydroxymethyl)picolinamide], the IC50 fell in the range of 10 to 100 nM.

As for `Cc1c(COc2cc(OCc3cncc(C#N)c3)c(CN[C@](C)(CO)C(=O)O)cc2Cl)cccc1-c1cccc(OCC2(CN3CC[C@@H](O)C3)CC2)c1C` [Example 2341, (R)-2-((5-chloro-2-((5-cyanopyridin-3-yl)methoxy)-4-((3′-((1-(((R)-3-hydroxypyrrolidin-1-yl)methyl)cyclopropyl)methoxy)-2,2′-dimethyl-[1,1′-biphenyl]-3-yl)methoxy)benzyl)amino)-3-hydroxy-2-methylpropanoic Acid], the half-inhibitory concentration (IC50) lay in the range of 0.21 to 10 nM.

With `Cc1c(COc2cc(OCc3cncc(C#N)c3)c(CNC(CO)CO)cc2Cl)cccc1-c1cccc(OCC2(CN3CC[C@@H](O)C3)CC2)c1C` [Example 2342, (R)-5-((4-chloro-2-(((1,3-dihydroxypropan-2-yl)amino)methyl)-5-((3′-((1-((3-hydroxypyrrolidin-1-yl)methyl)cyclopropyl)methoxy)-2,2′-dimethyl-[1,1′-biphenyl]-3-yl)methoxy)phenoxy)methyl)nicotinonitrile], the IC50 was in the range of 0.21 to 10 nM.

Consider `Cc1c(COc2cc(OCc3cncc(C#N)c3)c(CN3CCCC[C@H]3C(=O)O)cc2Cl)cccc1-c1cccc(OCC2(CN3CC[C@@H](O)C3)CC2)c1C` [Example 2346, (S)-1-(5-chloro-2-((5-cyanopyridin-3-yl)methoxy)-4-((3′-((1-(((R)-3-hydroxypyrrolidin-1-yl)methyl)cyclopropyl)methoxy)-2,2′-dimethyl-[1,1′-biphenyl]-3-yl)methoxy)benzyl)piperidine-2-carboxylic Acid], for which the IC50 was in the range of 0.21 to 10 nM.

As for `Cc1c(COc2cc(OCc3cncc(C#N)c3)c(CNC(CO)CO)cc2Cl)cccc1-c1cccc(NC(=O)CNC2CC2)c1C` [Example 2347, N-(3′-((2-chloro-5-((5-cyanopyridin-3-yl)methoxy)-4-(((1,3-dihydroxypropan-2-yl)amino)methyl)phenoxy)methyl)-2,2′-dimethyl-[1,1′-biphenyl]-3-yl)-2-(cyclopropylamino)acetamide], the 50% inhibitory concentration (IC50) was 0.21 to 10 nM.

On to `Cc1c(COc2cc(OCc3cncc(C#N)c3)c(CN[C@@](C)(CO)C(=O)O)cc2Cl)cccc1-c1cccc(OCC2(CN3CC[C@@H](O)C3)CC2)c1C` [Example 2348, (S)-2-((5-chloro-2-((5-cyanopyridin-3-yl)methoxy)-4-((3′-((1-(((R)-3-hydroxypyrrolidin-1-yl)methyl)cyclopropyl)methoxy)-2,2′-dimethyl-[1,1′-biphenyl]-3-yl)methoxy)benzyl)amino)-3-hydroxy-2-methylpropanoic Acid], for which the IC50 lay in the range of 0.21 to 10 nM.

Turning to `Cc1cc(C(=O)N2CCOCC2)ccc1-c1cccc(COc2cc(OCc3cncc(C#N)c3)c(CNC(CO)CO)cc2Cl)c1C` [Example 2349, 5-((4-chloro-2-(((1,3-dihydroxypropan-2-yl)amino)methyl)-5-((2,2′-dimethyl-4′-(morpholine-4-carbonyl)-[1,1′-biphenyl]-3-yl)methoxy)phenoxy)methyl)nicotinonitrile], the concentration for half-maximal inhibition (IC50) lay within 10 to 100 nM.
